For 14 compounds, IC50 results are on record in patent publication US9034866B2 (Genentech, Inc., priority 2012, dated 2015).

Experiment [1] relates to REL-A (p65) nuclear translocation in HeLa cells. As to the kind of experiment: REL-A nuclear translocation assay (classical NF-kB signaling), high content imaging. In kind it is cell-based. The note with it: Homo sapiens, HeLa, compounds 4.5 hours, then 10 ng/mL TNF-α for 30 minutes, read-out: REL-A HeLa Transloc Assay (IC50). The method, then:
(§1) (2) A second set of cell assay are used to define the selectivity of NIK inhibitors toward inhibition of classical vs. non-classical NF-kB signaling and rely on quantification of the nuclear translocation of p52 (NF-kB2) and REL-A (p65) using high content cellular imaging. For the p52 (non-classical NF-kB signaling) nuclear translocation assay, HeLa cells are treated with different concentrations of compounds (0.2% DMSO final) in medium containing 10% fetal bovine serum and then stimulated with 100 ng/mL, of an anti-lymphotoxin beta receptor antibody (R&D Systems) for 5 hours. In the REL-A nuclear translocation assay, HeLa cells are incubated with compounds (0.2% DMSO final) for 4.5 hours in medium containing 10% fetal bovine serum before stimulating them with 10 ng/mL tumor necrosis factor (TNF)-α (R&D Systems) for 30 minutes. Cells are fixed with 4% paraformaldehyde, permeabilized by adding 0.1% Triton X-100 in phosphate buffered saline, and then are incubated with either 2 ug/mL anti-p52 antibody (Millipore) or 400 ng/mL anti-REL-A (p65) antibody (Santa Cruz Biotechnology). Finally, the cells are incubated with an Alexa488-labeled secondary antibody (Invitrogen) and DRAQ5 DNA stain (Biostatus). Imaging is carried out using an Opera reader (Perkin Elmer) and data are analyzed with the aid of Acapella software (Perkin Elmer). The p52 or REL-A translocation into the nucleus is quantified by the ratio of the nuclear to cytoplasmic signal intensity. […] The compounds in listed in Table 1 have the corresponding inhibitory value (IC50 in micromolar) for NIK p52 Translocation Assay as set forth in Table 2.
The compounds in listed in Table 1 has the corresponding inhibitory value (IC50 in micromolar) for NIK RelA Translocation Assay as set forth in Table 2.

For experiment [2], the system named is p52 (NF-kB2) nuclear translocation in HeLa cells. As to the kind of experiment: p52 nuclear translocation assay (non-classical NF-kB signaling), high content imaging. In kind it is cell-based. The note with it: 100 ng/mL anti-lymphotoxin beta receptor antibody for 5 hours, read-out: p52 HeLa Transloc Assay (IC50). The method, then: as §1

Structures are written as SMILES. pIC50: −log10 of the molar value. Like-named read-outs stand apart in the source and are kept apart here.

By pIC50 is commonly meant the negative decadic logarithm of the IC50, by convention in mol/L. In the case of `CC(O)(C#Cc1cc2c(cc1F)OCCc1sc(C(N)=O)nc1-2)c1ccccn1` (centres unmarked) [Example 93], the negative-log IC50 (pIC50) was 4.70 in experiment [1] and 6.46 in experiment [2] (Homo sapiens, HeLa, 5 h).

As to `CC(=O)N(Cc1c(C(N)=O)nc2n1C1CC(C1)c1cc(F)c(C#CC(C)(C)O)cc1-2)C(C)C` [Example 371, 3-[[acetyl(isopropyl)amino]methyl]-9-fluoro-10-(3-hydroxy-3-methyl-but-1-ynyl)-5,6,7,12-tetrahydro-5,7-methano-benzo[c]imidazo[1,2-a]azepine-2-carboxamide], the negative-log IC50 (pIC50) in experiment [1] is under 4.70; in experiment [2] (Homo sapiens, HeLa, 5 h), 5.72.

Consider `Cc1nc([C@](C)(O)C#Cc2cc3c(cc2F)OC[C@H](N(C)C)c2sc(C(N)=O)nc2-3)no1` [Example 258, (S)-4-(dimethylamino)-8-fluoro-9-[3-(R)-hydroxy-3-(5-methyl-1,2,4-oxadiazol-3-yl)but-1-ynyl]-4,5-dihydro-[1]benzoxe-pino[5,4-d]thiazole-2-carboxamide], for which the negative logarithm of the IC50 (pIC50) in experiment [1] was under 4.70; in experiment [2] it was 5.70; in experiment [2] (Homo sapiens, HeLa, 5 h) it was 5.54.

Consider `CN1CC[C@@](O)(C#Cc2cc3c(cc2F)C2CC(C2)n2cc(C(N)=O)nc2-3)C1=O` [Example 300], for which the pIC50 in experiment [1] is under 4.70; in experiment [2] (Homo sapiens, HeLa, 5 h), 5.52.

In the case of `COC[C@](C)(O)C#Cc1cc2c(cc1F)C1CC(C1)n1cc(C(N)=O)nc1-2`, the pIC50 was under 4.70 in experiment [1] and 5.68 in experiment [2] (Homo sapiens, HeLa, 5 h).

In the case of `CN1CC[C@@](O)(C#Cc2ccc3c(c2)-c2nc(C(N)=O)c(Cc4ccccc4Cl)n2C2CC3C2)C1=O` [Example 308], the pIC50 is 4.70 in experiment [1] and 5.82 in experiment [2] (Homo sapiens, HeLa, 5 h).

On to `CNC(=O)c1c(C(N)=O)nc2n1C1CC(C1)c1ccc(C#CC(C)(C)O)cc1-2` (racemic), for which the pIC50 in experiment [1] was under 4.70; in experiment [2] (Homo sapiens, HeLa, 5 h), 6.13.

For the compound `Cc1cc([C@](C)(O)C#Cc2ccc3c(c2)-c2nc(C(N)=O)c(Cn4c(C)nc5ccccc54)n2CCO3)no1` [Example 415, 9-fluoro-10-(3-hydroxy-3-methyl-but-1-ynyl)-3-[(2-methoxyethylamino)methyl]-5,6,7,12-tetrahydro-5,7-methanobenzo[c]imidazo[1,2-a]azepine-2-carboxamide], the pIC50 was under 4.70 in experiment [1] and 6.01 in experiment [2] (Homo sapiens, HeLa, 5 h).

In the case of `CC(C)(O)C#Cc1cc2c(cc1F)C1CC(C1)n1c-2nc(C(N)=O)c1C1CC1` [Example 195, 3-cyclopropyl-9-fluoro-10-(3-hydroxy-3-methyl-but-1-ynyl)-5,6,7,12-tetrahydro-5,7-methanobenzo[c]imidazo[1,2-a]azepine-2-carboxamide], the pIC50 in experiment [1] is under 4.70; in experiment [2] (Homo sapiens, HeLa, 5 h), 5.62.

As for `CNC(=O)c1c(C(N)=O)nc2n1C1CC(C1)c1cc(F)c(C#CC3(O)CCC3)cc1-2` [Example 368, 9-fluoro-10-[2-(1-hydroxycyclobutyl)ethy-nyl]-N3-methyl-5,6,7,12-tetrahydro-5,7-methanobenzo[c]imidazo[1,2-a]azepine-2,3-dicarboxamide], the pIC50 is under 4.70 in experiment [1] and 6.47 in experiment [2] (Homo sapiens, HeLa, 5 h).

For the compound `CN1CC[C@@](O)(C#Cc2ccc3c(c2)-c2nc(C(N)=O)sc2CCO3)C1=O` [Example 276], the pIC50 was 4.70 in experiment [1] and 7.02 in experiment [2] (Homo sapiens, HeLa, 5 h).

As to `NC(=O)c1cn2c(n1)-c1cc(C#CC3(O)CCC3)c(F)cc1C1CC2C1` [Example 364, 9-fluoro-10-[2-(1-hydroxycyclobutyl)ethy-nyl]-5,6,7,12-tetrahydro-5,7-methano-benzo[c]imidazo[1,2-a]azepine-2-carboxamide], the negative logarithm of the IC50 (pIC50) in experiment [1] was under 4.70; in experiment [2] (Homo sapiens, HeLa, 5 h) it was 6.01.

Consider `CC(C)(O)Cn1cc(-c2c(C(N)=O)nc3n2C2CC(C2)c2ccc(C#CC4(O)CCCC4)cc2-3)cn1` [Example 289], for which the pIC50 in experiment [1] was under 4.70; in experiment [2] (Homo sapiens, HeLa, 5 h), 5.57.

For the compound `CN1CCC(O)(C#Cc2cc3c(cc2F)OCCn2cc(C(N)=O)nc2-3)C1=O` (racemic), the pIC50 was under 4.70 in experiment [1] and 5.39 in experiment [2] (Homo sapiens, HeLa, 5 h).
